Values of other authors as cited in patent publication US9566245B2, “Osmotic drug delivery system” (Supernus Pharmaceuticals, Inc., priority 2006, dated 2017).

Conditions: treprostinil as the free acid

Absolute oral bioavailability: less than 10%
Structure (SMILES): CCCCC[C@H](O)CC[C@@H]1[C@H]2Cc3cccc(OCC(=O)O)c3C[C@H]2C[C@H]1O [treprostinil]
